Reference: patent US8486977B2, “1,2,3-triazole derivatives for use as stearoyl-CoA desaturase inhibitors” (GlaxoSmithKline LLC, priority 2007, dated 2013)

Molecular target: T1, SCD (Rattus norvegicus, UniProt P07308)
T1 construct: SCD-containing rat microsomes (2 μg protein); from tissue
T1 sequence (P07308 1-358): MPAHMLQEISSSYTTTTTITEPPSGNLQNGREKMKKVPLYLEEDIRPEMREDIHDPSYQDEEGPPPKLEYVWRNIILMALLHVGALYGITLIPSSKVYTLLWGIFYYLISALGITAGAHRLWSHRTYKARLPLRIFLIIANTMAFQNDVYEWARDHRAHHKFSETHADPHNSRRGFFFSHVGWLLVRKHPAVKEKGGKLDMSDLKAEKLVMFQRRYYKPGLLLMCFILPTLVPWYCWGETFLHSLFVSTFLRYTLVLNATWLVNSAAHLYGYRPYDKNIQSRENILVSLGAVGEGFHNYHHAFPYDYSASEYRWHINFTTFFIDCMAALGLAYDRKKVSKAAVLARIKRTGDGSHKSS
Assay: in vitro assay for SCD activity based on production of [3H]H2O
Format: biochemical
Details: SCD-containing rat microsomes (2 μg protein), [9,10-3H] stearoyl Coenzyme A 1 μM, 6 min incubation
Protocol: The compounds of the present invention may be analysed in vitro for SCD activity using an assay based on the production of [^3H]H2O, which is released during the enzyme-catalyzed generation of the monounsaturated fatty acyl CoA product. The assay is performed in a 96-well filtration plates. The titrated substrate used in the assay is the [9,10-^3H] stearoyl Coenzyme A. After incubation for 6 minutes of SCD-containing rat microsomes (2 μg protein) and substrate (1 μM), the labelled fatty acid acyl-CoA species and microsomes are absorbed with charcoal and separated from [^3H]H2O by centrifugation. The formation of [^3H]H2O is used as a measure of SCD activity. Compounds at concentrations starting at 10 μM to 0.1 nM or vehicle (DMSO) are preincubated for 5 minutes with the microsomes before addition of the substrate. The concentration-responses are fitted with sigmoidal curves to obtain IC50 values.

Q: For `COC(=O)c1cccc(NC(=O)c2nnn(Cc3ccc(Cl)c(Cl)c3)c2C)c1C` [Methyl 3-[({1-[(3,4-dichlorophenyl)methyl]-5-methyl-1H-1,2,3-triazol-4-yl}carbonyl)amino]-2-methylbenzoate], which IC50 is on record?
A: Its IC50 is greater than 10 µM.

Q: For `COC(=O)c1cc(NC(=O)c2nnn(Cc3ccc(Cl)c(Cl)c3)c2C)ccc1OC` [Methyl 5-[({1-[(3,4-dichlorophenyl)methyl]-5-methyl-1H-1,2,3-triazol-4-yl}carbonyl)amino]-2-(methyloxy)benzoate], which IC50 is on record?
A: The IC50 was greater than 10 µM.

Q: For `COC(=O)c1cc(NC(=O)c2nnn(Cc3ccccc3)c2C)cc(C(=O)OC)c1` [Dimethyl 5-({[5-methyl-1-(phenylmethyl)-lH-1,2,3-triazol-4-yl]carbonyl}amino)-1,3-benzenedicarboxylate], which IC50 is on record?
A: The IC50 was greater than 10 µM.

Q: For `CNC(=O)c1cccc(NC(=O)c2nnn(Cc3ccc(Cl)c(Cl)c3)c2C)c1C` [1-[(3,4-dichlorophenyl)methyl]-5-methyl-N-{2-methyl-3-[(methylamino)carbonyl]phenyl}-1H-1,2,3-triazole-4-carboxamide], which IC50 is on record?
A: The IC50 was greater than 10 µM.

Q: Which IC50 does the source give for `COC(=O)c1cc(NC(=O)c2nnn(Cc3ccc(Cl)c(Cl)c3)c2C)cc(C(=O)OC)c1` [Dimethyl 5-[({1-[(3,4-dichlorophenyl)methyl]-5-methyl-1H-1,2,3-triazol-4-yl}carbonyl)amino]-1,3-benzenedicarboxylate] here?
A: The IC50 was greater than 10 µM.

Q: With `Cc1c(C(=O)Nc2cc(C(=O)O)cc(C(=O)O)c2)nnn1Cc1cccc(Cl)c1` [5-[({1-[(3-Chlorophenyl)methyl]-5-methyl-1H-1,2,3-triazol-4-yl}carbonyl)amino]-1,3-benzenedicarboxylic acid] as the compound, how does the IC50 read?
A: Its IC50 is greater than 10 µM.

Q: With `COC(=O)c1cc(NC(=O)c2nnn(Cc3ccc(F)cc3)c2C)cc(C(=O)OC)c1` [Dimethyl 5-[({1-[(4-fluorophenyl)methyl]-5-methyl-1H-1,2,3-triazol-4-yl}carbonyl)amino]-1,3-benzenedicarboxylate] as the compound, how does the IC50 read?
A: The IC50 was greater than 10 µM.

Q: With `COc1ccc(NC(=O)c2nnn(Cc3ccc(C(C)C)cc3)c2C)cc1OC` [N-[3,4-Bis(methyloxy)phenyl]-5-methyl-1-{[4-(1-methylethyl)phenyl]methyl}-1H-1,2,3-triazole-4-carboxamide] as the compound, how does the IC50 read?
A: Its IC50 is greater than 10 µM.

Q: For `COC(=O)c1cc(NC(=O)c2nnn(Cc3cccc(Cl)c3)c2C)cc(C(=O)OC)c1` [Dimethyl 5-[({1-[(3-chlorophenyl)methyl]-5-methyl-1H-1,2,3-triazol-4-yl}carbonyl)amino]-1,3-benzenedicarboxylate], which IC50 is on record?
A: The IC50 was greater than 10 µM.

Q: For `COC(=O)c1ccc(NC(=O)c2nnn(Cc3ccccc3)c2C)cc1C(=O)OC` [Dimethyl 4-({[5-methyl-1-(phenylmethyl)-lH-1,2,3-triazol-4-yl]carbonyl}amino)-1,2-benzenedicarboxylate], which IC50 is on record?
A: The IC50 was greater than 10 µM.

Q: With `CNC(=O)c1cc(NC(=O)c2nnn(Cc3ccc(Cl)c(Cl)c3)c2C)cc(C(=O)NC)c1` [5-[({1-[(3,4-Dichlorophenyl)methyl]-5-methyl-1H-1,2,3-triazol-4-yl}carbonyl)amino]-N,N′-dimethyl-1,3-benzenedicarboxamide] as the compound, how does the IC50 read?
A: Its IC50 is greater than 10 µM.

Q: For `Cc1c(C(=O)Nc2ccc(OCCC(C)C)cc2)nnn1Cc1ccc(-c2ccccc2)cc1` [1-(4-Biphenylylmethyl)-5-methyl-N-{4-[(3-methylbutyl)oxy]phenyl}-1H-1,2,3-triazole-4-carboxamide], which IC50 is on record?
A: Its IC50 is greater than 10 µM.

System: not given
Assay: not given
Details: not given

Q: For `Cc1c(CO)cccc1NC(=O)c1nnn(Cc2ccc(Cl)c(Cl)c2)c1C` [Example 23, 1-[(3,4-Dichlorophenyl)methyl]-N-[3-(hydroxymethyl)-2-methylphenyl]-5-methyl-1H-1,2,3-triazole-4-carboxamide], which melting point is on record?
A: Its melting point is 174.3 °C.

Q: Which melting point does the source give for `COC(=O)c1cc(NC(=O)c2nnn(Cc3ccc(Cl)c(Cl)c3)c2C)ccc1F` [Example 32, Methyl 5-[({1-[(3,4-dichlorophenyl)methyl]-5-methyl-1H-1,2,3-triazol-4-yl}carbonyl)amino]-2-fluorobenzoate] here?
A: Its melting point is 169.8 °C.

Q: With `Cc1c(C(=O)Nc2cccc(CO)c2)nnn1Cc1ccc(F)cc1` [Example 87, 1-[(4-Fluorophenyl)methyl]-N-[3-(hydroxymethyl)phenyl]-5-methyl-1H-1,2,3-triazole-4-carboxamide] as the compound, how does the melting point read?
A: The melting point was 142.1 °C.

Q: For `COC(=O)c1cc(NC(=O)c2nnn(Cc3cc(Cl)cc(Cl)c3)c2C)ccc1F` [Example 47, Methyl 5-[({1-[(3,5-dichlorophenyl)methyl]-5-methyl-1H-1,2,3-triazol-4-yl}carbonyl)amino]-2-fluorobenzoate], which melting point is on record?
A: Its melting point is 191 °C.

Q: Which melting point does the source give for `COc1ccc(CCO)cc1NC(=O)c1nnn(Cc2ccc(Cl)c(Cl)c2)c1C` [Example 54, 1-[(3,4-Dichlorophenyl)methyl]-N-[5-(2-hydroxyethyl)-2-(methyloxy)phenyl]-5-methyl-1H-1,2,3-triazole-4-carboxamide] here?
A: Its melting point is 138 °C.

Q: Which melting point does the source give for `Cc1c(C(=O)Nc2ccc(CO)cc2)nnn1Cc1cccc(F)c1` [Example 91, 1-[(3-Fluorophenyl)methyl]-N-[4-(hydroxymethyl)phenyl]-5-methyl-1H-1,2,3-triazole-4-carboxamide] here?
A: The melting point was 134.3 °C.

Q: For `Cc1c(C(=O)Nc2cc(C(=O)O)cc(C(=O)O)c2)nnn1Cc1ccccc1` [Example 65, 5-({[5-Methyl-1-(phenylmethyl)-1H-1,2,3-triazol-4-yl]carbonyl}amino)-1,3-benzenedicarboxylic acid], which melting point is on record?
A: Its melting point is 307.2 °C.

Q: For `Cc1c(C(=O)Nc2cccc(CO)c2)nnn1Cc1ccc(Cl)c(Cl)c1` [Example 24, 1-[(3,4-Dichlorophenyl)methyl]-N-[3-(hydroxymethyl)phenyl]-5-methyl-1H-1,2,3-triazole-4-carboxamide], which melting point is on record?
A: The melting point was 185.2 °C.

Q: With `CNC(=O)c1cccc(NC(=O)c2nnn(Cc3ccc(Cl)c(Cl)c3)c2C)c1` [Example 18, 1-[(3,4-Dichlorophenyl)methyl]-5-methyl-N-{3-[(methylamino)carbonyl]phenyl}-1H-1,2,3-triazole-4-carboxamide] as the compound, how does the melting point read?
A: The melting point was 203.9 °C.
